In assay [1] the test system is Aedes aegypti. The assay can be described thus: Warm Body assay, mosquito landings on treated warm body. The class given is in vivo. In a few lines:
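Compounds in ethanol (100 μL, various concentrations) were applied to a sandblasted glass dish covering the warm body (28.3 cm^2), with ethanol as control. Landings were counted automatically from 30 non-blood-fed, sugar-fed Aedes aegypti Rockefeller females aged 5–10 days, under 150 lux.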

The test system of assay [2] is Anopheles gambiae. The assay is described as above. The class given is in vivo. The settings on record: for repellence (no mosquito landing on the attractive stimulus): with at least one of the two concentrations 0.447% & 1% (Table 4); for pest or weed control at 3.2 µg/mL: 0.0032 mg/mL (Table 5); for pest or weed control at 80 µg/mL: 0.08 mg/mL (Table 5); for pest or weed control at 2000 µg/mL: 2 mg/mL (Table 5). Here is the method:
Anopheles gambiae is also a model organism as it is anthropophilic and transmits malaria.
The controlling effect according to the present invention was assessed using an adapted Warm Body assay as defined in Kröber T, Kessler S, Frei J, Bourquin M, Guerin P M. 2010. J Am Mosq Control Assoc. 26: 381-386. In this in-vitro assay the number of mosquito landing on a warm body, simulating an attractive host treated with the tested stimuli, was measured in order to assess the repellence effect.
On the sandblasted glass Petri dish covering the warm body (28.3 cm^2), 100 μL of the compounds diluted at different concentrations in ethanol was applied. The number of mosquito landing on the warm body was counted for each stimulus and pure ethanol (solvent) as control.

In the next assay the test system is Ixodes ricinus. Description: Warm Plate assay, tick repellence. The settings on record: Ixodes ricinus, read-out: Percentage of repellence of ticks Ixodes ricinus on the warm plate.
The subject of assay [3] is Aedes aegypti. The assay can be described thus: Free flying room assay, spatial repellence with human volunteer. It is filed as in vivo. An excerpt:
The goal of this large-scale test is to assess the propensity of stimulus released in the air to protect a human volunteer by limiting the mosquito presence in a protected space and the number of landing/biting. The protocol used to carry the test is following the guidelines indicated in WHO (2013; ISBN 978 92 4 150502 4).
A group of 50 Aedes aegypti female mosquitoes were introduced in one chamber of 25 m^3 one hour before the test started. The product was applied in the other chamber of 25 m^3 (“treated chamber”) and let evaporate for 30 minutes. The test started when the window separating the two chambers was opened in a tilt-on manner for another 30 minutes. Twenty minutes after the window was opened, a volunteer entered in the “treated chamber” and sat down for 10 minutes, exposing the forearm for the last 3 minutes to determine the probing activity (Protective Efficacy). Then, the connecting window was closed and the number of mosquitoes in each of the chambers was counted (Spatial Repellency). The negative controls were carried out following the same procedure but without the application of the stimulus. Three replicates of each treatment and of the negative control were conducted with three different volunteers.

The test system of assay [4] is Anopheles gambiae. The assay can be described thus: Arm-in-cage test on human volunteers over time. The class given is in vivo. The settings on record: for Complete Protection Time (no confirmed landing) / Number of mosquitoes landing on the treated arm (test): arm treated with 20%.
Setting [5] is: Anopheles gambiae, 4.47 mg/mL (Table 4), read-out: Percentage of repellence of mosquitoes Anopheles gambiae landing on the warm body.
The mark [6] stands for this setting: Anopheles gambiae, 10 mg/mL (Table 4), read-out: Percentage of repellence of mosquitoes Anopheles gambiae landing on the warm body.
Setting [7] is: Aedes aegypti, 0.016 mg/mL (Table 3), read-out: Percentage of repellence of mosquitoes Aedes aegypti landing on the warm body.
Where [8] appears, read: Aedes aegypti, 0.4 mg/mL (Table 3), read-out: Percentage of repellence of mosquitoes Aedes aegypti landing on the warm body.
The mark [9] stands for this setting: Aedes aegypti, 10 mg/mL (Table 3), read-out: Percentage of repellence of mosquitoes Aedes aegypti landing on the warm body.
The mark [10] stands for this setting: Anopheles gambiae, read-out: Percentage of repellence of mosquitoes Anopheles gambiae landing on the warm body.
[11] abbreviates: Anopheles gambiae, 0.178 mg/mL (Table 4), read-out: Percentage of repellence of mosquitoes Anopheles gambiae landing on the warm body.
The mark [12] stands for this setting: Anopheles gambiae, 0.178 mg/mL (Table 5), read-out: Percentage of repellence of mosquitoes Anopheles gambiae landing on the warm body.
Setting [13] is: Anopheles gambiae, 0.267 mg/mL (Table 4), read-out: Percentage of repellence of mosquitoes Anopheles gambiae landing on the warm body.
Where [14] appears, read: Anopheles gambiae, 0.267 mg/mL (Table 5), read-out: Percentage of repellence of mosquitoes Anopheles gambiae landing on the warm body.
The mark [15] stands for this setting: Anopheles gambiae, 0.4 mg/mL (Table 4), read-out: Percentage of repellence of mosquitoes Anopheles gambiae landing on the warm body.
[16] abbreviates: Anopheles gambiae, 0.4 mg/mL (Table 5), read-out: Percentage of repellence of mosquitoes Anopheles gambiae landing on the warm body.
[17] abbreviates: Anopheles gambiae, 4.47 mg/mL (Table 5), read-out: Percentage of repellence of mosquitoes Anopheles gambiae landing on the warm body.
The mark [18] stands for this setting: Anopheles gambiae, 10 mg/mL (Table 5), read-out: Percentage of repellence of mosquitoes Anopheles gambiae landing on the warm body.

Molecules are shown by their SMILES. Where two headings read alike, the source gives them in different places.

Turning to `COC(=O)Oc1ccc(C)cc1OC` [compound 1141, (2-methoxy-4-methylphenyl) methyl carbonate], in the assay on Aedes aegypti [1] (Aedes aegypti, 0.0032 mg/mL (Table 1), read-out: Percentage of repellence of mosquitoes Aedes aegypti landing on the warm body), the pest or weed control at 3.2 µg/mL was determined as 24%. For the same molecule, the pest or weed control at 7.1 µg/mL in the assay on Aedes aegypti [1] (Aedes aegypti, 0.0071 mg/mL (Table 1), read-out: Percentage of repellence of mosquitoes Aedes aegypti landing on the warm body) came out at 39%. The pest or weed control at 16 µg/mL with Aedes aegypti [1] (Aedes aegypti, 0.016 mg/mL (Table 1), read-out: Percentage of repellence of mosquitoes Aedes aegypti landing on the warm body) was determined as 17%. Besides, the pest or weed control at 35.7 µg/mL with Aedes aegypti [1] (Aedes aegypti, 0.0357 mg/mL (Table 1), read-out: Percentage of repellence of mosquitoes Aedes aegypti landing on the warm body) is 13%. For the same molecule, the pest or weed control at 53 µg/mL in the assay with Aedes aegypti [1] (Aedes aegypti, 0.053 mg/mL (Table 1), read-out: Percentage of repellence of mosquitoes Aedes aegypti landing on the warm body) was found to be 50%. In the assay on Aedes aegypti [1] (Aedes aegypti, 0.08 mg/mL (Table 1), read-out: Percentage of repellence of mosquitoes Aedes aegypti landing on the warm body), the pest or weed control at 80 µg/mL came out at 39%. Further, the pest or weed control at 178 µg/mL in the assay on Aedes aegypti [1] (Aedes aegypti, 0.178 mg/mL (Table 1), read-out: Percentage of repellence of mosquitoes Aedes aegypti landing on the warm body) came out at 67%. Further, the pest or weed control at 400 µg/mL in the assay with Aedes aegypti [1] (Aedes aegypti, 0.4 mg/mL (Table 1), read-out: Percentage of repellence of mosquitoes Aedes aegypti landing on the warm body) turned out to be 72%; in the assay with Ixodes ricinus, 8.3%. Further, in the assay on Aedes aegypti [1] (Aedes aegypti, 0.89 mg/mL (Table 1), read-out: Percentage of repellence of mosquitoes Aedes aegypti landing on the warm body), the pest or weed control at 890 µg/mL came to 98%. Also, the pest or weed control at 2000 µg/mL in the assay with Aedes aegypti [1] (Aedes aegypti, 2 mg/mL (Table 1), read-out: Percentage of repellence of mosquitoes Aedes aegypti landing on the warm body) came out at 89%; with Ixodes ricinus it was 58.3%. For the same molecule, the pest or weed control at 4470 µg/mL with Aedes aegypti [1] (Aedes aegypti, 4.47 mg/mL (Table 1), read-out: Percentage of repellence of mosquitoes Aedes aegypti landing on the warm body) came out at 87%; with Anopheles gambiae [2] (setting [5]), 100%. Also, the pest or weed control at 10000 µg/mL with Aedes aegypti [1] (Aedes aegypti, 10 mg/mL (Table 1), read-out: Percentage of repellence of mosquitoes Aedes aegypti landing on the warm body) worked out at 91%; in the assay with Anopheles gambiae [2] (setting [6]) it was 69%; with Ixodes ricinus it was 66.7%. Also, the “repellence (no mosquito landing on the attractive stimulus)” value with Anopheles gambiae [2] came out at 100%.
`COc1cc(C)cc(OC)c1OC` [compound 1967, 3,4,5-trimethoxytoluene]: the “mosquitoes landed on the volunteer” value with Aedes aegypti [3] (in 3 minutes, negative control 60.7±2.5 landings) came out at 22.3±3.2. For the same molecule, the “Spatial Repellence” value in the assay on Aedes aegypti [3] (large scale assay, 25 m3 chambers, compound released in the air) is listed as 47.3 ± 3.8%. Moreover, the Protective efficacy in the assay on Aedes aegypti [3] (large scale assay, probing on volunteer forearm, 3 minutes) was determined as 63.1 ± 5.5%. In the assay with Aedes aegypti [3] (negative control 82.5±3.7%), the “mosquito entered the treated chamber” value came out at 43.5±3.2%. The pest or weed control at 16 µg/mL in the assay on Aedes aegypti [1] (setting [7]) came to 0%; with Anopheles gambiae [2] (Anopheles gambiae, 0.016 mg/mL (Table 5), read-out: Percentage of repellence of mosquitoes Anopheles gambiae landing on the warm body) it was 0%. In addition, the pest or weed control at 400 µg/mL turned out to be 12% with Aedes aegypti [1] (setting [8]), 84% with Anopheles gambiae [2] (setting [15]) and 71% in the assay with Anopheles gambiae [2] (setting [16]). Further, the results for the pest or weed control at 10000 µg/mL in the assay with Aedes aegypti [1] (setting [9]), in the assay with Anopheles gambiae [2] (setting [6]) and in the assay on Anopheles gambiae [2] (setting [18]) were 81%, 100% and 100%, respectively. In addition, the pest or weed control at 3.2 µg/mL with Anopheles gambiae [2] (setting [10]) came to 0%. Further, the pest or weed control at 80 µg/mL in the assay on Anopheles gambiae [2] (setting [10]) is 1%. The pest or weed control at 178 µg/mL with Anopheles gambiae [2] (setting [11]) came to 65%; in the assay on Anopheles gambiae [2] (setting [12]), 59%. For the same molecule, the pest or weed control at 267 µg/mL is 78% in the assay on Anopheles gambiae [2] (setting [13]) and 82% in the assay with Anopheles gambiae [2] (setting [14]). The pest or weed control at 2000 µg/mL in the assay with Anopheles gambiae [2] (setting [10]) amounted to 100%. The pest or weed control at 4470 µg/mL in the assay on Anopheles gambiae [2] (setting [5]) and with Anopheles gambiae [2] (setting [17]) was 100% throughout. The repellence in the assay on Anopheles gambiae [2] (concentration ≥0.0178% (Table 5)) is > 50%. Further, in the assay on Anopheles gambiae [2] (concentrations ≥0.2% (Table 5)), the landing entry was “no landing at all”. For the same molecule, the percentage of repellence result in the assay with Anopheles gambiae [2] (lowest concentration tested, 0.0178% (Table 4)) was “above 60%”. Further, the “repellence (no mosquito landing on the attractive stimulus)” value with Anopheles gambiae [2] turned out to be 100%.
On to `Cc1ccc2c(c1)OCC(=O)CO2` [compound 1228, 7-methyl-1,5-benzodioxepin-3-one], for which, in the assay with Anopheles gambiae [4], the “Complete Protection Time (no confirmed landing)” value is listed as 1.33 h. The “Number of mosquitoes landing on the treated arm (test)” value in the assay on Anopheles gambiae [4] (30 min post-application) is listed as 0; in the assay with Anopheles gambiae [4] (1 h post-application), 0; in the assay with Anopheles gambiae [4] (2 h post-application) it was 3.0 ± 1.8; in the assay on Anopheles gambiae [4] (3 h post-application), 7.5 ± 1.1. In addition, in the assay on Anopheles gambiae [4] (at 3 h, on two volunteers), the protection is 79.64%. Moreover, in the assay on Aedes aegypti [1] (setting [7]), the pest or weed control at 16 µg/mL was 54%. The figures for the pest or weed control at 400 µg/mL in the assay with Aedes aegypti [1] (setting [8]), in the assay on Anopheles gambiae [2] (setting [15]) and in the assay on Anopheles gambiae [2] (setting [16]) were 74%, 65% and 66%, respectively. Also, the pest or weed control at 10000 µg/mL in the assay with Aedes aegypti [1] (setting [9]), in the assay with Anopheles gambiae [2] (setting [6]) and in the assay on Anopheles gambiae [2] (setting [18]) was 100% throughout. Further, the pest or weed control at 1 % in the assay with Aedes aegypti [1] (Aedes aegypti, highest tested concentration, 1% (Table 3), read-out: repellence) is > 90%. Further, the pest or weed control at 0.0016 % in the assay on Aedes aegypti [1] (Aedes aegypti, lowest concentration of 0.0016% (Table 3), read-out: reduce the number of mosquito landings) is > 50%. In addition, in the assay with Aedes aegypti [1] (highest tested concentration, 1% (Table 3)), the “mosquito landing within the two minutes of experiments” value is on record as “protect the attractive stimulus for any mosquito landing”. Also, the pest or weed control at 3.2 µg/mL with Anopheles gambiae [2] (setting [10]) was 0%. For the same molecule, the pest or weed control at 80 µg/mL with Anopheles gambiae [2] (setting [10]) amounted to 0%. The pest or weed control at 178 µg/mL in the assay on Anopheles gambiae [2] (setting [11]) and in the assay with Anopheles gambiae [2] (setting [12]) was 48% throughout. The pest or weed control at 267 µg/mL in the assay with Anopheles gambiae [2] (setting [13]) worked out at 85%; with Anopheles gambiae [2] (setting [14]) it was 71%. Besides, in the assay on Anopheles gambiae [2] (Anopheles gambiae, 0.598 mg/mL (Table 5), read-out: Percentage of repellence of mosquitoes Anopheles gambiae landing on the warm body), the pest or weed control at 598 µg/mL turned out to be 69%. Also, the pest or weed control at 2000 µg/mL in the assay with Anopheles gambiae [2] (setting [10]) amounted to 92%. Besides, the pest or weed control at 4470 µg/mL with Anopheles gambiae [2] (setting [5]) and with Anopheles gambiae [2] (setting [17]) was 92% in each case. Moreover, the “repellence (no mosquito landing on the attractive stimulus)” value in the assay on Anopheles gambiae [2] is recorded as 100%.
Turning to `CCCCN(CCC(=O)OCC)C(C)=O` [IR3535, ethyl butylacetylaminopropionate, reference compound], in the assay on Anopheles gambiae [4], the “Complete Protection Time (no confirmed landing)” value is reported as 0.17 h.
